In article PMC7793009 (ACS infectious diseases, 2020):
Where two headings read alike, the source gives them in different places.

Tests used:
[1] = system: tBHQ-induced ARE activity; test: cells; format: cell-based; conditions: read-out: ARE/GFP/tBHQ IC50
[2] = system: p62-induced ARE activity; test: cells; format: cell-based; conditions: read-out: ARE/p62 IC50
[3] = system: ARE activity induced by over-expression of Nrf2; test: cells; format: cell-based; conditions: for IC50: read-out: ARE/Nrf2 IC50
[4] = biological target: constitutively expressed firefly luciferase (ce-FF) (Photinus pyralis, UniProt P08659); test: cell-based; format: cell-based
[5] = system: NF-κB; test: cells; format: cell-based; conditions: read-out: NF-κB IC50
[6] = system: HEK293T cells; conditions: 24 h, ATP content (CellTiter-Glo)
[7] = system: endogenous Nrf2; format: cell-based
[8] = system: mVP24-induced ARE activity; test: siRNA; format: cell-based; conditions: two p53 siRNAs vs scramble, mVP24/ARE HEK293T, 24 h treatment
[9] = system: mVP24-induced ARE activity; test: ARE/mVP24 firefly luciferase reporter assay; format: cell-based; conditions: plateau around 1 μM of compound
[10] = system: Flag-tagged mVP24; format: cell-based, Marburg virus
[11] = in vitro; conditions: human

Chain of constitutively expressed firefly luciferase (ce-FF) (P08659 whole entry): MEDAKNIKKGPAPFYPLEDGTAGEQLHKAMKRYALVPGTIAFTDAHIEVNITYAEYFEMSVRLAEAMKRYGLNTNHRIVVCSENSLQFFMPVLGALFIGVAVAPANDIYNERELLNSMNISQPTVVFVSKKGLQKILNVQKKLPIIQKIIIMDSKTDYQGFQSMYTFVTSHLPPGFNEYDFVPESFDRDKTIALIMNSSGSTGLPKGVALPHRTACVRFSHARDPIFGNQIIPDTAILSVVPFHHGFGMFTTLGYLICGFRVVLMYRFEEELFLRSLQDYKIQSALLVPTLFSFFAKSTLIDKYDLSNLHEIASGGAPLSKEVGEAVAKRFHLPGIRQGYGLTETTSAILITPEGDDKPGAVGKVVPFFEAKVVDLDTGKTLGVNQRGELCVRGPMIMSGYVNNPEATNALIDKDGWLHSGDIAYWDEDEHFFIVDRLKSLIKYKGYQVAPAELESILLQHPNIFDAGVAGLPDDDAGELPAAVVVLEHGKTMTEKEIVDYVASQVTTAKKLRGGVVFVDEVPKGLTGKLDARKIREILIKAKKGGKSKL

## Nc1ncnc2c1c(I)cn2[C@@H]1O[C@H](CO)[C@@H](O)[C@H]1O [5-iodotubercidin]
[1]
  IC50: 0.2 µM
[2]
  IC50: 0.058 µM
[3]
  IC50: 1.2 µM
[4]; read-out: Ce-FF IC50
  IC50: 15 µM
[5]
  IC50: 6.5 µM
[6]
  CC50: > 50 µM

## O=C(N[C@@H]1CCCc2c1[nH]c1ccc(Cl)cc21)c1ccccn1 [GSK983]
[7]
  Nrf2 expression relative to DMSO control: decreased
[8]
  effect of p53 knockdown on inhibition of mVP24-induced ARE activity: did not result in a reversal of inhibition

## COc1cc([C@@H]2c3cc4c(cc3[C@H](O)[C@H]3COC(=O)[C@H]23)OCO4)cc(OC)c1OC [Podophyllotoxin, podophyllotoxin]
[9]
  plateau of inhibitory activity against mVP24-induced ARE activity: approximately 80%
[1]; Homo sapiens, HEK-293T, 24 h
  IC50: 0.026 µM
[2]; Homo sapiens, HEK-293T, 24 h
  IC50: 3.1 µM
[3]; ARE/Nrf2 assay
  inhibition of ARE activity following over-expression of Nrf2 (in words): did not inhibit
[3]; Homo sapiens, HEK-293T, 24 h
  IC50: > 50 µM
[4]
  IC50: > 50 µM
[5]; Homo sapiens, HEK-293T, 6 h
  IC50: > 50 µM
[10]
  mVP24 expression relative to DMSO control: affected
[7]; ARE/mVP24 HEK293T cells, 1 and 5 μM, 24 h, western blot
  Nrf2 expression relative to DMSO control: affected
[11]
  CC50 at 24 h: > 50 µM
